Some test systems named below: DU-145 prostate; SK-MEL-2 melanoma; HCT-15 colon; M14 melanoma; SF-268 CNS; HCC-2998 colon; KM12 colon; MDA-MB-231 breast; EKVX NSCLC; SK-MEL-28 melanoma; ACHN renal; SF-295 CNS; UACC-257 melanoma; COLO 205 colon; A549 NSCLC; A498 renal; UACC-62 melanoma.
Holding throughout (assay): NCI anticancer screen, dose series, 48 h

Several values for one entry are separate records, joined by “and”; a condition that tells them apart may be missing. Equal entries are not always repeated.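 Five compound concentrations were applied to cells in 96-well plates for 48 hours; endpoints were derived by simple linear interpolation of the resulting dose-response curve. Here, GI50 denotes the concentration required for 50% inhibition of growth. TGI: concentration producing complete growth inhibition.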

`BrCC(Br)(c1ccccc1)c1ccccc1-c1cc(-c2ccccc2)cc(-c2ccccc2)n1` (configuration not stated): the TGI is greater than 45.5 µM in the assay with DU-145 prostate; 5.47 µM with SK-MEL-2 melanoma; 30 µM in the assay on HCT-15 colon; 21.6 µM with M14 melanoma; 8.5 µM with SF-268 CNS; 9.8 µM in the assay on HCC-2998 colon. Also, the TGI is 12.6 µM with KM12 colon; 11.4 µM in the assay on MDA-MB-231 breast; greater than 100 µM in the assay with EKVX NSCLC; 25.3 µM in the assay with SK-MEL-28 melanoma; 23.9 µM with ACHN renal; 8.92 µM in the assay on SF-295 CNS. Also, the TGI with UACC-257 melanoma stood at 8.92 µM; in the assay on COLO 205 colon, 2.81 µM; in the assay on A549 NSCLC, 25.5 µM; with A498 renal it was 15.6 µM.
As for `O=C(NNC(=S)NCc1ccccc1)C12CC3CC(CC(C3)C1)C2`, the TGI in the assay on DU-145 prostate, in the assay with SK-MEL-2 melanoma, with HCT-15 colon, in the assay with M14 melanoma, in the assay with SF-268 CNS and in the assay with HCC-2998 colon was greater than 100 µM throughout. For the same compound, the TGI with KM12 colon, with MDA-MB-231 breast, with SK-MEL-28 melanoma, in the assay on ACHN renal, with SF-295 CNS and with UACC-257 melanoma was greater than 100 µM in each case. Further, the TGI in the assay with COLO 205 colon is 44.1 µM; in the assay with UACC-62 melanoma, greater than 100 µM; in the assay with A498 renal, greater than 100 µM.
As for `O=[N+]([O-])c1sc2ccc(Cl)cc2c1Nc1ccc(Cl)cc1`, the TGI with DU-145 prostate, in the assay on SK-MEL-2 melanoma, in the assay with HCT-15 colon, in the assay with M14 melanoma, in the assay with SF-268 CNS and with HCC-2998 colon was greater than 100 µM each time. Moreover, the TGI with KM12 colon, in the assay on MDA-MB-231 breast, with EKVX NSCLC, in the assay with SK-MEL-28 melanoma, with ACHN renal and in the assay with SF-295 CNS was greater than 100 µM in each case. In addition, the TGI in the assay with COLO 205 colon, with UACC-62 melanoma, with A549 NSCLC and in the assay on A498 renal was greater than 100 µM in each case.
As for `COC1(CC[C@H](C)COC2OC(CO)C(O)C(O)C2O)O[C@H]2C[C@H]3[C@@H]4CC=C5C[C@@H](OC6OC(CO)C(O)C(OC7OC(CO)C(O)C(O)C7O)C6OC6OC(C)C(O)C(O)C6O)CC[C@]5(C)[C@H]4CC[C@]3(C)[C@H]2[C@@H]1C` (some centres not stated), the TGI in the assay with DU-145 prostate stood at 4.29 µM; in the assay with SK-MEL-2 melanoma it was 25.2 µM; in the assay with HCT-15 colon, 7.43 µM; in the assay with SF-268 CNS, 15.2 µM; in the assay with HCC-2998 colon, 11.6 µM; in the assay with KM12 colon, 3.91 µM. For the same compound, the TGI was 15.5 µM in the assay on MDA-MB-231 breast; greater than 51 µM in the assay with EKVX NSCLC; 6.74 µM with SK-MEL-28 melanoma; 36.3 µM in the assay on ACHN renal; 10.1 µM in the assay on SF-295 CNS; 22 µM in the assay with UACC-257 melanoma. For the same compound, the TGI in the assay on COLO 205 colon was 16.2 µM; in the assay with UACC-62 melanoma, greater than 39.2 µM; with A549 NSCLC it was 7.27 µM; with A498 renal, 34.5 µM.
Regarding `CCOC(=O)c1[nH]c2nc(SC)nc(Nc3ccccc3Cl)c2c1N`, the TGI with DU-145 prostate was 95.7 µM; in the assay on SK-MEL-2 melanoma it was greater than 100 µM; in the assay with HCT-15 colon, greater than 100 µM; with M14 melanoma, greater than 100 µM; with SF-268 CNS, 60.9 µM; in the assay on HCC-2998 colon it was greater than 100 µM. The TGI is greater than 100 µM in the assay with KM12 colon; 59.3 µM with MDA-MB-231 breast; greater than 100 µM with SK-MEL-28 melanoma; 46.1 µM in the assay with ACHN renal; 51.5 µM in the assay on SF-295 CNS; greater than 100 µM with UACC-257 melanoma. In addition, the TGI in the assay on COLO 205 colon is greater than 100 µM; in the assay on UACC-62 melanoma, 84.7 µM; in the assay with A549 NSCLC, 44.8 µM; with A498 renal, 55.9 µM.
As to `O=C(O)C12C3CCC(O3)C1(C(=O)O)C1CCC2O1` (configuration not stated), the TGI in the assay on DU-145 prostate is greater than 100 µM; in the assay on SK-MEL-2 melanoma, greater than 100 µM; in the assay with HCT-15 colon, greater than 100 µM; in the assay on M14 melanoma it was 29.6 µM and > 100 µM; in the assay with SF-268 CNS, greater than 100 µM; in the assay on HCC-2998 colon, greater than 100 µM. Besides, the TGI in the assay with KM12 colon, with MDA-MB-231 breast, in the assay on SK-MEL-28 melanoma, with ACHN renal, in the assay on SF-295 CNS and in the assay on UACC-257 melanoma was greater than 100 µM each time. For the same compound, the TGI with COLO 205 colon, in the assay with UACC-62 melanoma, in the assay with A549 NSCLC and with A498 renal was greater than 100 µM in each case. Moreover, the GI50 with M14 melanoma is 16.1 µM and > 100 µM; in the assay on MDA-MB-231 breast it was 42.2 µM and 85.8 µM.
As for `Cc1c(-c2ccccc2)c(C#N)c2nnn(-c3cccc(Cl)c3)c(=O)n12`, the TGI was greater than 100 µM in the assay with DU-145 prostate; 67.2 µM in the assay with SK-MEL-2 melanoma; greater than 100 µM in the assay on HCT-15 colon; greater than 100 µM in the assay with SF-268 CNS; greater than 100 µM with HCC-2998 colon; greater than 100 µM in the assay with KM12 colon. The TGI with MDA-MB-231 breast was 72.9 µM; with EKVX NSCLC, greater than 100 µM; in the assay on SK-MEL-28 melanoma it was greater than 100 µM; with ACHN renal, greater than 100 µM; in the assay on SF-295 CNS, greater than 100 µM; in the assay with UACC-257 melanoma it was greater than 100 µM. In addition, the TGI is greater than 100 µM with COLO 205 colon, greater than 100 µM in the assay with UACC-62 melanoma and 98.5 µM with A498 renal.

The values above are taken from PubChem BioAssay (NCI).
